Results published in patent US12577213B2 (NINGBO COMBIREG PHARMACEUTICAL TECHNOLOGY CO., LTD., priority 2020, dated 2026).
Like-named read-outs stand apart in the source and are kept apart here. Values belong to the compound of their own block, whether it stands above or below them.

Tests used:
[1] = Liver microsomes stability; type: in vitro ADME, human; details: for half-life at 1 μM: human, human liver microsomes
Procedure, shortened: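 Compound at 1 μM final incubated with 1 mg/mL human liver microsomes and 1 mM NADPH (no-NADPH control), sampled at 0, 5, 15, 30, 60 min. Remaining parent quantified by LC-MS/MS; T1/2 = 0.693/k.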

[2] = Metabolic stability in vivo (plasma half-life after IV); details: intravenously at 1 mg/kg, male BALB/c nude mice; for half-life: mouse, plasma, iv, read-out: T½ of (IV in nude mice) (converted)
Description: The intravenous injection group of the embodiment compound was prepared with the mixed solvent of DMA:PEG400:30% SBECD=5:25:70 to form a 0.2 mg/mL of solution, and administered intravenously at 1 mg/kg of weight; and the oral preparation group was prepared with 0.5% MC to form a 1 mg/mL of solution, and administered by oral gavage at 10 mg/kg weight.
• Male BALB/c nude mice, 4-5 weeks old, purchased from Shanghai SLAC. 3. Experiment Method: 3.1 Instruments: • Liquid chromatography system: Shimadzu liquid chromatography system Shimadzu LC-30AD • MS/MS system: Applied Biosystems API5500 • Data collection: Analyst Software 1.5.2 3.2 Chromatographic Conditions Chromatographic Column • Analytical column: Kinetex 2.6u C18 100 A column (3.0 mm×30 mm) • Mobile phase: A: 10 mM NH4OAc (0.1% FA); B: Acetonitrile with 0.1% […] • Flow rate: 1.0 mL/min
Ion source was an electron spray ionization (ESI source) with negative ion detection; spray voltage source was 5500 V; ion source gas 1 (N2) was 50 psi; ion source gas 2 (N2) was 50 psi; air curtain gas (N2) was 30 psi. Scanning mode was multiple reaction monitoring (MRM); scanning time was 80 ms; collision gas pressure was 10 psi;
Grouping experiment, with three animals in each group, starting from now on, administration was started according to the weight of the animals. Blood was collected according to 5 min, 15 min, 30 min, 1 h, 2 h, 4 h, 8 h and 24 h after administration.
To 25.0 μL of plasma, 25.0 μL of internal standard solution (Tolbutamide (250 ng/mL) in acetonitrile), 25.0 μL of acetonitrile and 100 μL of acetonitrile were added, and the mixture was vortexed for 1 min, and centrifuged for 5 min (14000 rpm). 120 μL of the resulting supernatant was added with 80.0 μL of water (containing 1% formic acid) and mixed well, then analyzed by LC/MS/MS.

LOX-IMVI (melanoma) = experiment: NCI method SRB growth inhibition, LOX-IMVI; type: cell-based; details: Homo sapiens, treated 48 hours, SRB stain
Procedure, shortened: (§1)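 Following the NCI method, one plate is fixed immediately before compound addition, test wells are fixed after 48 h treatment, and vehicle wells after 48 h in medium. All are stained with sulforhodamine B and measured at 515 nm, and GI50, TGI and LC50 are derived from the growth-rate curves.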

HS 578T (breast cancer) = experiment: NCI method SRB growth inhibition, HS 578T; type: cell-based; details: Homo sapiens, HS578T, treated 48 hours, SRB stain
Procedure, shortened: as §1

[3] = system: A549 (non-small cell lung cancer); experiment: NCI method SRB growth inhibition, A549; type: cell-based; details: Homo sapiens; A549, treated 48 hours, SRB stain
Procedure, shortened: as §1

PC-3 (prostate cancer) = experiment: NCI method SRB growth inhibition, PC-3; type: cell-based; details: Homo sapiens; PC-3, treated 48 hours, SRB stain
Procedure, shortened: as §1

[4] = system: SF295 (central nervous system tumor); experiment: NCI method SRB growth inhibition, SF295; type: cell-based; details: Homo sapiens, SF-295; SF295, treated 48 hours, SRB stain
Procedure, shortened: as §1

K562 (leukemia) = experiment: NCI method SRB growth inhibition, K562; type: cell-based; details: Homo sapiens; K562, treated 48 hours, SRB stain
Procedure, shortened: as §1

OVCAR-3 (ovarian cancer) = experiment: NCI method SRB growth inhibition, OVCAR-3; type: cell-based; details: Homo sapiens; OVCAR-3, treated 48 hours, SRB stain
Procedure, shortened: as §1

786-0 (renal cancer) = experiment: NCI method SRB growth inhibition, 786-0; type: cell-based; details: Homo sapiens; 786-0, treated 48 hours, SRB stain
Procedure, shortened: as §1

HCT116 (colon cancer) = experiment: NCI method SRB growth inhibition, HCT116; type: cell-based; details: Homo sapiens, HCT-116; HCT116, treated 48 hours, SRB stain
Procedure, shortened: as §1

[5] = system: breast cancer cell line SUM159 sphere; experiment: Breast cancer stem cell sphere formation; type: cell-based, human; details: 50 nM
Description: The inhibitory effects of embodiment compounds 5, 7, 11, 13, 14, 20 and 21 on the formation of breast cancer cell line SUM159 sphere are described as follows.
The breast cancer cell line SUM159 sphere was cultured with serum-free medium in an ultra-low adsorption plate, the basal medium was DMEM/F12 (without phenol red), and B27 (without vitamin A) (1×), EGF (20 ng/ml), bFGF (20 ng/ml) and insulin (insulin, 5 ug/ml) were added.
An equal number (4000) of SUM159 cells per well were inoculated into an ultra-low adsorption 24 plate, and the sphere was photographed after 5 days of culture, replaced with fresh medium, and treated with drugs at certain concentrations, respectively. Compounds 5, 7, 11, 13, 14, 20 and 21 were evaluated in this experiment at 50 nM, respectively. The effect of the drug on the sphere phenotype could be observed after about 3 days of drug treatment. The sphere was photographed again after 5 days of drug treatment, and then the sphere was passaged. The sphere was photographed again after 7 days of passage.
The differences of the photographs taken in three different stages were counted and compared, and the killing effect of the tested compounds on SUM159 sphere was evaluated through the differences of sphere formation after passage, thus reflecting the inhibitory effects of different compounds on breast cancer stem cells.

[6] = 1 μM compound, 1 mg/mL human liver microsomes, 1 mM NADPH
[7] = 1 μM compound, 1 mg/mL human liver microsomes, 1 mM NADPH, read-out: T½ of HLM
[8] = as repeated in Table 4, read-out: T½ of HLM (in vitro)

Compound: CCN(CC)C(=O)C[C@H]1C(=O)Nc2cc(NC(=O)c3cc(OC)c(OC)c(OC)c3Br)c(Oc3cc(C)cc(C)c3)cc2C(=O)N1C [a, reference compound]
microsomal CLint at 1 μM [1, 6]: 63.1 µL/min/mg | half-life at 1 μM [1, 7]: 11 min | half-life at 1 μM [1, 8]: 11 min | T½ of (IV in nude mice) [2]: 31.9 min

Compound: [2H]C([2H])([2H])C([2H])([2H])N(C(=O)C[C@@H]1NC(=O)c2cc(Oc3cc(C)cc(C)c3)c(NC(=O)c3cc(OC)c(OC)c(OC)c3Cl)cc2NC1=O)C([2H])([2H])C([2H])([2H])[2H] [Compound 8, (S)-2-chloro-N-[3-[2-[bis(pentadeuteroethyl)amino]-2-oxoethyl]-7-(3,5-dimethylphenoxy)-2,5-dioxo-2,3,4,5-tetrahydro-1H-benzo[e][1,4]diazepin-8-yl]-3,4,5-trimethoxybenzamide]
GI50 (LOX-IMVI (melanoma)): < 5 nM | GI50 (HS 578T (breast cancer)): 13.3 nM | GI50 [3]: 15.3 nM | GI50 (PC-3 (prostate cancer)): 9.7 nM | microsomal CLint at 1 μM [1, 6]: 13.7 µL/min/mg | half-life at 1 μM [1, 7]: 50.6 min | half-life at 1 μM [1, 8]: 50.6 min | GI50 [4]: 10.3 nM | GI50 (K562 (leukemia)): < 5 nM | GI50 (OVCAR-3 (ovarian cancer)): 5 nM | GI50 (786-0 (renal cancer)): 13.9 nM | GI50 (HCT116 (colon cancer)): < 5 nM | half-life [2]: 38 min

Compound: [2H]C([2H])([2H])Oc1cc(C(=O)Nc2cc3c(cc2Oc2cc(C)cc(C)c2)C(=O)N[C@@H](CC(=O)N(CC)CC)C(=O)N3)c(Cl)c(OC([2H])([2H])[2H])c1OC([2H])([2H])[2H] [Compound 1, (S)-2-chloro-N-[3-[2-(diethylamino)-2-oxoethyl]-7-(3,5-dimethylphenoxy)-2,5-dioxo-2,3,4,5-tetrahydro-1H-benzo[e][1,4]diazepin-8-yl]-3,4,5-tris(trideuteromethoxy)benzamide]
GI50 (LOX-IMVI (melanoma)): < 5 nM | GI50 (HS 578T (breast cancer)): 31.6 nM | GI50 [3]: 15 nM | GI50 (PC-3 (prostate cancer)): 5.5 nM | microsomal CLint at 1 μM [1, 6]: 16.5 µL/min/mg | half-life at 1 μM [1, 7]: 42 min | half-life at 1 μM [1, 8]: 42 min | GI50 [4]: 12.3 nM | GI50 (K562 (leukemia)): < 5 nM | GI50 (OVCAR-3 (ovarian cancer)): 5.5 nM | GI50 (786-0 (renal cancer)): 8.1 nM | GI50 (HCT116 (colon cancer)): 5.4 nM | half-life [2]: 53.1 min

Compound: COc1cc(C(=O)Nc2cc3c(cc2Oc2cc(C)cc(C)c2)C(=O)N[C@@H](CC(=O)N(C)C)C(=O)N3)c(Br)c(OC)c1OC [d, reference compound]
half-life at 1 μM [1, 8]: 100 min | half-life [2]: 46.6 min

Continued, in another order:

microsomal CLint at 1 μM [1, 6]: 9.5 µL/min/mg | half-life at 1 μM [1, 7]: 73 min | half-life at 1 μM [1, 8]: 73 min | half-life [2]: 78.6 min
Compound: [2H]C([2H])([2H])Oc1cc(C(=O)Nc2cc3c(cc2Oc2cc(C)cc(C)c2)C(=O)N[C@@H](CC(=O)N(C([2H])([2H])C([2H])([2H])[2H])C([2H])([2H])C([2H])([2H])[2H])C(=O)N3)c(Cl)c(OC([2H])([2H])[2H])c1OC([2H])([2H])[2H] [Compound 6, (S)-2-chloro-N-[3-[2-[bis(pentadeuteroethyl)amino]-2-oxoethyl]-7-(3,5-dimethylphenoxy)-2,5-dioxo-2,3,4,5-tetrahydro-1H-benzo[e][1,4]diazepin-8-yl]-3,4,5-tris(trideuteromethoxy)benzamide]
GI50 (LOX-IMVI (melanoma)): < 5 nM | GI50 (HS 578T (breast cancer)): 20.5 nM | GI50 [3]: 11.7 nM | GI50 (PC-3 (prostate cancer)): 10.3 nM | GI50 [4]: 13.1 nM | GI50 (K562 (leukemia)): < 5 nM | GI50 (OVCAR-3 (ovarian cancer)): 11.9 nM | GI50 (786-0 (renal cancer)): 16.9 nM | GI50 (HCT116 (colon cancer)): < 5 nM

microsomal CLint at 1 μM [1, 6]: 14.8 µL/min/mg | half-life at 1 μM [1, 7]: 46.8 min
Compound: [2H]C([2H])([2H])Oc1cc(C(=O)Nc2cc3c(cc2Oc2cc(C)cc(C)c2)C(=O)N(C)[C@@H](CC(=O)N(C([2H])([2H])C([2H])([2H])[2H])C([2H])([2H])C([2H])([2H])[2H])C(=O)N3)c(Br)c(OC([2H])([2H])[2H])c1OC([2H])([2H])[2H] [Compound 13, (S)-2-bromo-N-[3-[2-[bis(pentadeuteroethyl)amino]-2-oxoethyl]-7-(3,5-dimethylphenoxy)-4-methyl-2,5-dioxo-2,3,4,5-tetrahydro-1H-benzo[e][1,4]diazepin-8-yl]-3,4,5-tris(trideuteromethoxy)benzamide]
GI50 (LOX-IMVI (melanoma)): < 5 nM | GI50 (HS 578T (breast cancer)): < 5 nM | GI50 [3]: < 5 nM | GI50 (PC-3 (prostate cancer)): < 5 nM | GI50 [4]: 7.5 nM | GI50 (K562 (leukemia)): < 5 nM | GI50 (OVCAR-3 (ovarian cancer)): < 5 nM | GI50 (786-0 (renal cancer)): 11.5 nM | killing effect on SUM159 sphere [5]: strong killing effect | formation of the sphere after cell passage ([5]; 5 days of drug treatment, then passage): significantly reduced | GI50 (HCT116 (colon cancer)): < 5 nM

microsomal CLint at 1 μM [1, 6]: 30.7 µL/min/mg | half-life at 1 μM [1, 7]: 22.6 min | half-life at 1 μM [1, 8]: 22.6 min | half-life [2]: 34 min
Compound: [2H]C([2H])([2H])C([2H])([2H])N(C(=O)C[C@H]1C(=O)Nc2cc(NC(=O)c3cc(OC)c(OC)c(OC)c3Cl)c(Oc3cc(C)cc(C)c3)cc2C(=O)N1C)C([2H])([2H])C([2H])([2H])[2H] [Compound 12, (S)-2-chloro-N-[3-[2-[bis(pentadeuteroethyl)amino]-2-oxoethyl]-7-(3,5-dimethylphenoxy)-4-methyl-2,5-dioxo-2,3,4,5-tetrahydro-1H-benzo[e][1,4]diazepin-8-yl]-3,4,5-trimethoxybenzamide]
GI50 (LOX-IMVI (melanoma)): < 5 nM | GI50 (HS 578T (breast cancer)): 13.3 nM | GI50 [3]: < 5 nM | GI50 (PC-3 (prostate cancer)): 5.4 nM | GI50 [4]: 10.8 nM | GI50 (K562 (leukemia)): < 5 nM | GI50 (OVCAR-3 (ovarian cancer)): 12.6 nM | GI50 (786-0 (renal cancer)): 9.9 nM | GI50 (HCT116 (colon cancer)): < 5 nM
